# Laboratory results as given in patent US20090054523A1, “Use of a Fatty Acid Composition Containing DHA for the Production of a Medical Product or a Food Stuff for the Treatment of Amyloidos-Related Diseases” (priority 2005, published 2009).
# System: secondary amyloidosis (spleen amyloid)
# Experiment: Secondary amyloidosis induced by silver nitrate injections, spleen amyloid by Congo red
# Format: in vivo, Female NMRI mice
# Method: Female NMRI mice were injected once a week subcutaneously with 0.3 ml of a 1% silver nitrate solution for 25 weeks. The animals were fed high fat diet containing mainly sunflower oil with a fat content of 55% of total daily calories. Three groups each consisting of 6 animals were given different omega-3 fatty acid concentrates (intervention group) or standard olive oil containing about 78% oleic acid (oleic acid group). In the intervention groups 15% of the fat content was exchanged with either 97% docosahexaenoic acid (DHA group) or EPAX1050TG containing 10% of EPA and 50% of DHA (EPAX group).
# After study completion the mice were sacrificed and spleens were collected.
# The air-dried smear material and 10-μm-thick sections from the formalin fixed material were stained for amyloid with specific dye alkaline Congo red. The slides were examined in cross-polarized light for bright green birefringence, specific for amyloid. Evaluation of the material was performed on coded slides.
structure (smiles),measurement,setting,value
"CC/C=C\C/C=C\C/C=C\C/C=C\C/C=C\C/C=C\CCC(=O)O [DHA, (all-Z omega-3)-4,7,10,13,16,19-docosahexaenoic acid]",amyloid appeared in the spleen,"25 weeks of weekly s.c. silver nitrate, 15% of fat content exchanged",one out of six
same,animals that developed amyloid after silver nitrate injections,after 25 weeks of treatment,one
same,animals with amyloid,"spleen, 25 weeks of weekly s.c. silver nitrate, 15% of tot. fat of high fat diet exchanged",1/6 animals
